Measured values published in patent publication US20250313604A1, “PEPTIDE PHARMACEUTICALS FOR INSULIN RESISTANCE” (Mederis Diabetes LLC, priority 2014, published 2025).

How the values were obtained:
[1] = in water; cited from earlier work
DIO mice = test: In vivo assay in DIO mice (OGTT, insulin, body weight, NMR body composition)
Experimental: Fifty (50) diet induced obese (DIO) C57BL/6J male mice were received from JAX labs at 6 wks of age. The mice were ear notched for identification and housed […] in positively ventilated polycarbonate cages with HEPA filtered air at a density of 5 mice per cage. The animal room was lit entirely with artificial fluorescent lighting, with a controlled 12 h light/dark cycle. The normal temperature and relative humidity ranges in the animal rooms were 22±4° C. and 50±15%, respectively. Filtered tap water, acidified to a pH of 2.8 to 3.1, and high fat diet (Research Diets D12492; 60 kcal %) was provided ad libitum.
Following a 2 week acclimation, 50 mice were randomized into groups (n=10) as below. Group 1. Vehicle treated; Group 2. Low dose EU-A994; Group 3. high dose EU-A594; Group 4. low dose EU-A1024; Group 5. high dose EU-A1024. Mice were dosed via SC on days 1 (0, 7 hrs.), 3, 6, 9, 12, 15, 18, 21, 24. Body weights and cage side observations were recorded daily. Food and water intake was recorded weekly. Mice underwent NMR measurements for determining whole body fat and lean composition on days 1 (pre-dose) and 26. On day 26, mice were fasted overnight for an oral glucose tolerance test. Next day, the first blood sample was collected via tail nick (t=0). Mice were then administered a bolus of 1.0 g/kg glucose. Blood samples were obtained via tail nick at 0, 15, 30, 60, 90 and 120 min after glucose and plasma glucose was immediately determined using a glucometer.
Sacrifice and tissue collection: Mice were sacrificed on day 28. Terminal blood was processed to serum/plasma and aliquots were sent for analysis of glucose, insulin and lipid profile. Body composition was determined by NMR.

db/db mice = test: In vivo assay in db/db mice (blood glucose, body weight, food consumption)
glucagon R = target: T1, glucagon R (Homo sapiens, UniProt P47871); test: DiscoveRx LeadHunter cellular assay, cAMP stimulation, glucagon receptor; format: cell-based; conditions: human receptor cloned into CHO cells
T1 construct: host or cells: CHO cells
T1 sequence (P47871 26-477): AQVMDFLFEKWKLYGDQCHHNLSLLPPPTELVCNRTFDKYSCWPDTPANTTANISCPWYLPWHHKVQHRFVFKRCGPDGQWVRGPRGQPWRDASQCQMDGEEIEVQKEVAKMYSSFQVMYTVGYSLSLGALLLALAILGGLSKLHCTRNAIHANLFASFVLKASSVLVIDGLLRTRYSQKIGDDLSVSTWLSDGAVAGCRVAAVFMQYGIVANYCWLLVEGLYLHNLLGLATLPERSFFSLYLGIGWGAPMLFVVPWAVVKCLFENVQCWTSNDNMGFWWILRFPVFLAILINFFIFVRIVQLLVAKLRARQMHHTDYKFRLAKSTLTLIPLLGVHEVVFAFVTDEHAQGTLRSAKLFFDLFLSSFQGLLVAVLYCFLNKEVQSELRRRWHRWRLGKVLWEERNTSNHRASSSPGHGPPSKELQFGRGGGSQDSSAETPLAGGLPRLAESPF
Experimental: (§1) A further series of cellular assays were carried out using standard cellular assays (DiscoveRx, LeadHunter assays) using readout of cAMP stimulation or arrestin activation. Compounds were weighed precisely in an amount of approximately 1 mg and shipped to DiscoveRx for dilution and assay.

GLP-1 R = target: T2, GLP-1 R (Homo sapiens, UniProt P43220); test: DiscoveRx LeadHunter cellular assay, cAMP stimulation, GLP-1 receptor; format: cell-based; conditions: human receptor cloned into CHO cells
T2 construct: host or cells: CHO cells
T2 sequence (P43220 24-463): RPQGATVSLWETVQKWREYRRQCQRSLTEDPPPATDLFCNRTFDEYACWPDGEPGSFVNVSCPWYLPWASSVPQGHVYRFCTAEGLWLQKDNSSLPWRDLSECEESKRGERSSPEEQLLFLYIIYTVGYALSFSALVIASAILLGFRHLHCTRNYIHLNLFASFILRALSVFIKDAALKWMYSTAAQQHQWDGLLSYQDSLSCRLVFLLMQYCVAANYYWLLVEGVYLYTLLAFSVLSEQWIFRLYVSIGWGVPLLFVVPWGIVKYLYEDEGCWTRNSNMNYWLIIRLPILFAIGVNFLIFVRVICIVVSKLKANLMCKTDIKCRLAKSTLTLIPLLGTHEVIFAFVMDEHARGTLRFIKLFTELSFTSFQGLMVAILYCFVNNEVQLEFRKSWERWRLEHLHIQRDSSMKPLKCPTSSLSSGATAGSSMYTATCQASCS
Experimental: as §1

CCCCCCCCCCCCCCO[C@@H]1O[C@H](CO)[C@@H](O[C@@H]2O[C@@H](CO)[C@H](O)[C@@H](O)[C@@H]2O)[C@H](O)[C@H]1O (stereo in doubt) [Tetradecyl maltoside]
CMC [1]: 0.01 mM

CCCCCCCCCCCCCO[C@@H]1O[C@H](CO)[C@@H](OC2OC(CO)C(O)C(O)C2O)[C@H](O)[C@H]1O (stereo in doubt) [Tridecyl maltoside]
CMC [1]: 0.03 mM

CCCCCCCCCCO[C@@H]1O[C@H](CO)[C@@H](O[C@H]2O[C@H](CO)[C@@H](O)[C@H](O)[C@H]2O)[C@H](O)[C@H]1O [Decyl maltoside]
CMC [1]: 1.8 mM

CCCCCCCCCCCCO[C@@H]1O[C@H](CO)[C@@H](O[C@H]2O[C@H](CO)[C@@H](O)[C@H](O)[C@H]2O)[C@H](O)[C@H]1O [Dodecyl-β-D-maltoside]
CMC [1]: 0.17 mM

CCCCCCCCCCCCCCO[C@@H]1O[C@H](CO[C@H]2O[C@H](C(=O)NCCCC[C@H](NC(=O)[C@@H](NC(=O)[C@H](Cc3ccccc3)NC(=O)[C@H](CCC(=O)O)NC(=O)[C@@H]3CCCCNC(=O)CC[C@H](NC(=O)[C@H](CC(=O)O)NC(=O)[C@H](CC(C)C)NC(=O)[C@H](Cc4ccc(O)cc4)NC(=O)[C@H](CCCCN)NC(=O)[C@H](CO)NC(=O)[C@H](Cc4ccc(O)cc4)NC(=O)[C@H](CC(=O)O)NC(=O)[C@H](CO)NC(=O)[C@@H](NC(=O)[C@H](Cc4ccccc4)NC(=O)[C@@H](NC(=O)CNC(=O)[C@H](CCC(N)=O)NC(=O)C(C)(C)NC(=O)[C@@H](N)Cc4c[nH]cn4)[C@@H](C)O)[C@@H](C)O)C(=O)N[C@@H](CCC(N)=O)C(=O)N[C@@H](C)C(=O)N[C@@H](C)C(=O)N3)[C@@H](C)CC)C(=O)N[C@@H](Cc3c[nH]c4ccccc34)C(=O)N[C@@H](CC(C)C)C(=O)N[C@@H](CC(C)C)C(=O)N[C@@H](CCC(N)=O)C(=O)N[C@H](C(N)=O)[C@@H](C)O)[C@H](O)[C@H](O)[C@H]2O)[C@@H](O)[C@H](O)[C@H]1O [EU-A1024, His1-Aib2-Gln3-Gly4-Thr5-Phe6-Thr7-Ser8-Asp9-Tyr10-Ser11-Lys12-Tyr13-Leu14-Asp15-Glu*16-Gln17 Ala18-Ala19-Lys*20-Glu21-Phe22-Ile23-Lys (N-omega (1-tetradecyl beta-D-melibiouronyl)) 24-Trp25-Leu26-Leu27-Gln28-Thr29-NH2]
fat mass (DIO mice; NMR (FIG. 11)): decreased fat mass
lean mass (DIO mice; NMR (FIG. 11)): minimal effects on lean mass
basal insulin secretion (DIO mice; SC dosing days 1-24): decreased basal insulin secretion
glucose-dependent insulin secretion (DIO mice; SC dosing days 1-24): potentiated glucose-dependent insulin secretion
weight gain (DIO mice; SC dosing days 1-24 (FIG. 10)): decreased weight gain
glucose excursion in the OGTT (DIO mice; SC dosing days 1-24, OGTT 1.0 g/kg glucose): decreased glucose excursion

CCCCCCCCCCCCCCCCCCO[C@@H]1O[C@H](CO[C@H]2O[C@H](C(=O)NCCCC[C@H](NC(=O)[C@@H](NC(=O)[C@H](Cc3ccccc3)NC(=O)[C@H](CCC(=O)O)NC(=O)[C@@H]3CCCCNC(=O)CC[C@H](NC(=O)[C@H](CC(=O)O)NC(=O)[C@H](CC(C)C)NC(=O)[C@H](Cc4ccc(O)cc4)NC(=O)[C@H](CCCCN)NC(=O)[C@H](CO)NC(=O)[C@H](Cc4ccc(O)cc4)NC(=O)[C@H](CC(=O)O)NC(=O)[C@H](CO)NC(=O)[C@@H](NC(=O)[C@H](Cc4ccccc4)NC(=O)[C@@H](NC(=O)CNC(=O)[C@H](CCC(N)=O)NC(=O)C(C)(C)NC(=O)[C@@H](N)Cc4c[nH]cn4)[C@@H](C)O)[C@@H](C)O)C(=O)N[C@@H](CCC(N)=O)C(=O)N[C@@H](C)C(=O)N[C@@H](C)C(=O)N3)[C@@H](C)CC)C(=O)N[C@@H](Cc3c[nH]c4ccccc34)C(=O)N[C@@H](CC(C)C)C(=O)N[C@@H](CC(C)C)C(=O)N[C@@H](CCC(N)=O)C(=O)N[C@H](C(N)=O)[C@@H](C)O)[C@H](O)[C@H](O)[C@H]2O)[C@@H](O)[C@H](O)[C@H]1O [EU-A1026, His1-Aib2-Gln3-Gly4-Thr5-Phe6-Thr7-Ser8-Asp9-Tyr10-Ser11-Lys12-Tyr13-Leu14-Asp15-Glu*16-Gln17 Ala18-Ala19-Lys*20-Glu21-Phe22-Ile23-Lys (N-omega (1-octadecyl beta-D-melibiouronyl)) 24-Trp25-Leu26-Leu27-Gln28-Thr29-NH2]
db/db mice - Mean Blood Glucose (db/db mice; 300 nmole/kg s.c., 0 hr): 531 mg/dL
db/db mice - Mean Blood Glucose (db/db mice; 300 nmole/kg s.c., 10 hr): 399 mg/dL
db/db mice - Mean Blood Glucose (db/db mice; 300 nmole/kg s.c., 24 hr): 438 mg/dL
db/db mice - Mean Blood Glucose (db/db mice; 300 nmole/kg s.c., 48 hr): 505 mg/dL
body weight changes against vehicle (db/db mice; high dose (300 nmoles/kg) s.c., Days 2 and 3): Significant body weight changes
glucose levels versus liraglutide (db/db mice; low dose (100 nmoles/kg) s.c., 10 hours): significantly different from liraglutide
body weight changes against vehicle (db/db mice; low dose (100 nmoles/kg) s.c., Days 3 and 4): Significant body weight changes

CCCCCCCCCCO[C@@H]1O[C@H](C(=O)NCCCC[C@H](NC(=O)[C@@H](NC(=O)[C@H](Cc2ccccc2)NC(=O)[C@H](CCC(=O)O)NC(=O)[C@@H]2CCCCNC(=O)CC[C@H](NC(=O)[C@H](CC(=O)O)NC(=O)[C@H](CC(C)C)NC(=O)[C@H](Cc3ccc(O)cc3)NC(=O)[C@H](CCCCN)NC(=O)[C@H](CO)NC(=O)[C@H](Cc3ccc(O)cc3)NC(=O)[C@H](CC(=O)O)NC(=O)[C@H](CO)NC(=O)[C@@H](NC(=O)[C@H](Cc3ccccc3)NC(=O)[C@@H](NC(=O)CNC(=O)[C@H](CCC(N)=O)NC(=O)C(C)(C)NC(=O)[C@@H](N)Cc3c[nH]cn3)[C@@H](C)O)[C@@H](C)O)C(=O)N[C@@H](CCC(N)=O)C(=O)N[C@@H](C)C(=O)N[C@@H](C)C(=O)N2)[C@@H](C)CC)C(=O)N[C@@H](Cc2c[nH]c3ccccc23)C(=O)N[C@@H](CC(C)C)C(=O)N[C@@H](CC(C)C)C(=O)N[C@@H](CCC(N)=O)C(=O)N[C@H](C(N)=O)[C@@H](C)O)[C@@H](O)[C@H](O)[C@H]1O [EU-A1167]
db/db mice - Mean Blood Glucose (db/db mice; 250 nmole/kg s.c., 0 hr): 379 mg/dL
db/db mice - Mean Blood Glucose (db/db mice; 250 nmole/kg s.c., 10 hr): 171 mg/dL
db/db mice - Mean Blood Glucose (db/db mice; 250 nmole/kg s.c., 24 hr): 117 mg/dL
db/db mice - Mean Blood Glucose (db/db mice; 250 nmole/kg s.c., 48 hr): 113 mg/dL

CCCCCCCCCCCO[C@@H]1O[C@H](C(=O)NCCCC[C@H](NC(=O)[C@@H](NC(=O)[C@H](Cc2ccccc2)NC(=O)[C@H](CCC(=O)O)NC(=O)[C@@H]2CCCCNC(=O)CC[C@H](NC(=O)[C@H](CC(=O)O)NC(=O)[C@H](CC(C)C)NC(=O)[C@H](Cc3ccc(O)cc3)NC(=O)[C@H](CCCCN)NC(=O)[C@H](CO)NC(=O)[C@H](Cc3ccc(O)cc3)NC(=O)[C@H](CC(=O)O)NC(=O)[C@H](CO)NC(=O)[C@@H](NC(=O)[C@H](Cc3ccccc3)NC(=O)[C@@H](NC(=O)CNC(=O)[C@H](CCC(N)=O)NC(=O)C(C)(C)NC(=O)[C@@H](N)Cc3c[nH]cn3)[C@@H](C)O)[C@@H](C)O)C(=O)N[C@@H](CCC(N)=O)C(=O)N[C@@H](C)C(=O)N[C@@H](C)C(=O)N2)[C@@H](C)CC)C(=O)N[C@@H](Cc2c[nH]c3ccccc23)C(=O)N[C@@H](CC(C)C)C(=O)N[C@@H](CC(C)C)C(=O)N[C@@H](CCC(N)=O)C(=O)N[C@H](C(N)=O)[C@@H](C)O)[C@@H](O)[C@H](O)[C@H]1O [EU-A1168]
db/db mice - Mean Blood Glucose (db/db mice; 250 nmole/kg s.c., 0 hr): 380 mg/dL
db/db mice - Mean Blood Glucose (db/db mice; 250 nmole/kg s.c., 10 hr): 133 mg/dL
db/db mice - Mean Blood Glucose (db/db mice; 250 nmole/kg s.c., 24 hr): 169 mg/dL
db/db mice - Mean Blood Glucose (db/db mice; 250 nmole/kg s.c., 48 hr): 164 mg/dL

CCCCCCCCCCCCCCO[C@H]1O[C@H](CO[C@H]2O[C@H](C(=O)NCCCC[C@@H]3NC(=O)[C@@H](NC(=O)[C@H](CC(=O)O)NC(=O)[C@H](CC(C)C)NC(=O)[C@H](Cc4ccc(O)cc4)NC(=O)[C@H](CCCCN)NC(=O)[C@H](CO)NC(=O)[C@H](Cc4ccc(O)cc4)NC(=O)[C@H](CC(=O)O)NC(=O)[C@H](CO)NC(=O)[C@@H](NC(=O)[C@H](Cc4ccccc4)NC(=O)[C@@H](NC(=O)CNC(=O)[C@H](CCC(N)=O)NC(=O)C(C)(C)NC(=O)[C@@H](N)Cc4c[nH]cn4)[C@@H](C)O)[C@@H](C)O)CCC(=O)NCCCC[C@@H](C(=O)N[C@@H](CCC(=O)O)C(=O)N[C@@H](Cc4ccccc4)C(=O)N[C@H](C(=O)N[C@@H](CCC(N)=O)C(=O)N[C@@H](Cc4c[nH]c5ccccc45)C(=O)N[C@@H](CC(C)C)C(=O)N[C@@H](CC(C)C)C(=O)N[C@@H](CCC(N)=O)C(=O)N[C@H](C(N)=O)[C@@H](C)O)[C@@H](C)CC)NC(=O)[C@H](C)NC(=O)[C@H](C)NC3=O)[C@H](O)[C@H](O)[C@H]2O)[C@@H](O)[C@H](O)[C@H]1O [EU-A1587, His1-Aib2-Gln3-Gly4-Thr5-Phe6-Thr7-Ser8-Asp9-Tyr10-Ser11-Lys12-Tyr13-Leu14-Asp15-Glu*16-Lys (N-omega (1-tetradecyl alpha-D-melibiouronyl)) 17 Ala18-Ala19-Lys*20-Glu21-Phe22-Ile23-Gln24-Trp25-Leu26-Leu27-Gln28-Thr29-NH2]
EC50 (glucagon R): 0.253 nM
EC50 (GLP-1 R): 0.081 nM

CCCCCCCCO[C@@H]1O[C@H](CO)[C@@H](O[C@H]2O[C@H](CO)[C@@H](O)[C@H](O)[C@H]2O)[C@H](O)[C@H]1O [Octyl maltoside]
CMC [1]: 19.5 mM

Sucrose dodecanoate
CMC [1]: 0.3 mM
